The assay addresses T1, VEB-1 (Escherichia coli, UniProt Q7BVU7).
T1 construct: gene blaVEB; natural plasmid-encoded enzyme, no tags; crude cell extracts of E. coli K12 26R793 transconjugants TrcS-2865 (VEB-1) and TrcE-1037 (VEB-25, GenBank MN862699), which also contain OXA-10 and TEM-1
Put plainly: spectrophotometric inhibition of ceftazidime hydrolysis. Type of assay: biochemical.

Take `NC(=O)[C@@H]1CC[C@@H]2CN1C(=O)N2OS(=O)(=O)O` [avibactam]: half-maximal inhibition (IC50) was put at 0.1 nM.

The values above are taken from article PMC6976883, “Detection in two hospitals of transferable ceftazidime-avibactam resistance in Klebsiella pneumoniae due to a novel VEB β-lactamase variant with a Lys234Arg substitution, Greece, 2019” (Eurosurveillance, 2020).
